The values below come from ChEMBL document CHEMBL5724914, “Linking interpersonal differences in gut microbiota composition and drug biotransformation activity” (2024).

Series [1] is described as follows: The drug is tested on WLS-027 corresponding to human gut metagenome with ENA study accession number: PRJEB37062 and ENA sample accession number: ERS12561744 for biotransformation under anaerobic condition. The drug concentrations were measured over 9 timepoints collected between 0 and 24 hours of incubation by liquid-chromatography-coupled mass spectrometry (LC–MS). Particulars: 2 µM.

Series [2] in a line: The drug is tested on Z-013 corresponding to rabbit gut metagenome with ENA study accession number: PRJEB37062 and ENA sample accession number: ERS12561813 for biotransformation under anaerobic condition. The drug concentrations were measured over 9 timepoints collected between 0 and 24 hours of incubation by liquid-chromatography-coupled mass spectrometry (LC–MS). Particulars: 2 µM.

The conditions of series [3]: human gut metagenome, 24 h, 2 µM.
The nature of series [4]: The drug is tested on Z-024 corresponding to pig gut metagenome with ENA study accession number: PRJEB37062 and ENA sample accession number: ERS12561823 for biotransformation under anaerobic condition. The drug concentrations were measured over 9 timepoints collected between 0 and 24 hours of incubation by liquid-chromatography-coupled mass spectrometry (LC–MS). Particulars: 2 µM.

For series [5] the following is noted: human gut metagenome, 24 h, 2 µM. The source holds these as a separate data set.
Series [6] is described as follows: The drug is tested on WLS-038 corresponding to human gut metagenome with ENA study accession number: PRJEB37062 and ENA sample accession number: ERS12561745 for biotransformation under anaerobic condition. The drug concentrations were measured over 9 timepoints collected between 0 and 24 hours of incubation by liquid-chromatography-coupled mass spectrometry (LC–MS). Particulars: 2 µM.

The nature of series [7]: The drug is tested on Z-005 corresponding to metagenome with ENA study accession number: PRJEB37062 and ENA sample accession number: ERS12561805 for biotransformation under anaerobic condition. The drug concentrations were measured over 9 timepoints collected between 0 and 24 hours of incubation by liquid-chromatography-coupled mass spectrometry (LC–MS). Particulars: 2 µM.

Series [8] in a line: The drug is tested on Z-028 corresponding to mouse gut metagenome with ENA study accession number: PRJEB37062 and ENA sample accession number: ERS12561827 for biotransformation under anaerobic condition. The drug concentrations were measured over 9 timepoints collected between 0 and 24 hours of incubation by liquid-chromatography-coupled mass spectrometry (LC–MS). Particulars: 2 µM.

The conditions of series [9]: human gut metagenome, 24 h, 2 µM. This is another data set of the same source.
Series [10] can be described thus: The drug is tested on Z-025 corresponding to rabbit gut metagenome with ENA study accession number: PRJEB37062 and ENA sample accession number: ERS12561824 for biotransformation under anaerobic condition. The drug concentrations were measured over 9 timepoints collected between 0 and 24 hours of incubation by liquid-chromatography-coupled mass spectrometry (LC–MS). Particulars: 2 µM.

Series [11] can be described thus: The drug is tested on Z-007 corresponding to rat gut metagenome with ENA study accession number: PRJEB37062 and ENA sample accession number: ERS12561807 for biotransformation under anaerobic condition. The drug concentrations were measured over 9 timepoints collected between 0 and 24 hours of incubation by liquid-chromatography-coupled mass spectrometry (LC–MS). Particulars: 2 µM.

Series [12] in a line: The drug is tested on Z-027 corresponding to metagenome with ENA study accession number: PRJEB37062 and ENA sample accession number: ERS12561826 for biotransformation under anaerobic condition. The drug concentrations were measured over 9 timepoints collected between 0 and 24 hours of incubation by liquid-chromatography-coupled mass spectrometry (LC–MS). Particulars: 2 µM.

For series [13] the following is noted: human gut metagenome, 24 h, 2 µM. The source holds these as a separate data set.
Series [14] can be described thus: The drug is tested on Z-002 corresponding to rabbit gut metagenome with ENA study accession number: PRJEB37062 and ENA sample accession number: ERS12561802 for biotransformation under anaerobic condition. The drug concentrations were measured over 9 timepoints collected between 0 and 24 hours of incubation by liquid-chromatography-coupled mass spectrometry (LC–MS). Particulars: 2 µM.

Series [15] is described as follows: The drug is tested on WLS-007 corresponding to human gut metagenome with ENA study accession number: PRJEB37062 and ENA sample accession number: ERS12561742 for biotransformation under anaerobic condition. The drug concentrations were measured over 9 timepoints collected between 0 and 24 hours of incubation by liquid-chromatography-coupled mass spectrometry (LC–MS). To be noted: 2 µM.

The conditions of series [16]: human gut metagenome, 24 h, 2 µM. This is another data set of the same source.
The conditions of series [17]: human gut metagenome, 24 h, 2 µM. The source holds these as a separate data set.
A short description of series [18]: The drug is tested on WLS-052 corresponding to human gut metagenome with ENA study accession number: PRJEB37062 and ENA sample accession number: ERS12561747 for biotransformation under anaerobic condition. The drug concentrations were measured over 9 timepoints collected between 0 and 24 hours of incubation by liquid-chromatography-coupled mass spectrometry (LC–MS). Particulars: 2 µM.

The conditions of series [19]: human gut metagenome, 24 h, 2 µM. The source holds these as a separate data set.
A short description of series [20]: The drug is tested on Z-022 corresponding to mouse gut metagenome with ENA study accession number: PRJEB37062 and ENA sample accession number: ERS12561821 for biotransformation under anaerobic condition. The drug concentrations were measured over 9 timepoints collected between 0 and 24 hours of incubation by liquid-chromatography-coupled mass spectrometry (LC–MS). To be noted: 2 µM.
Also: call rule not given here.

Take `NC(CO)(CO)CO.O=C(c1ccccc1)c1ccc2n1CCC2C(=O)O` (stereo not given) [KETOROLAC TROMETHAMINE]: the “Bacterial Biotransformation” value was “Compound metabolized” in series [1]; “Compound NOT metabolized” in series [2]; “Compound metabolized” in series [3]; “Compound metabolized” in series [4]; “Compound metabolized” in series [5]; “Compound metabolized” in [6]. Moreover, the “Bacterial Biotransformation” value in [7] was “Compound metabolized”; in series [8], “Compound NOT metabolized”; in [9], “Compound metabolized”; in series [10], “Compound NOT metabolized”; in series [11], “Compound NOT metabolized”; in series [12], “Compound metabolized”. The “Bacterial Biotransformation” value in series [13] was “Compound NOT metabolized”; in series [14], “Compound metabolized”; in series [15], “Compound metabolized”; in series [16], “Compound metabolized”; in [17] it was “Compound metabolized”; in series [18] it was “Compound metabolized”. Further, the “Bacterial Biotransformation” value in series [19] and in [20] was “Compound metabolized” each time.
As for `CC[C@H](C)C(=O)O[C@H]1C[C@@H](C)C=C2C=C[C@H](C)[C@H](CC[C@@H]3C[C@@H](O)CC(=O)O3)[C@H]21` [LOVASTATIN], the “Bacterial Biotransformation” value is given as “Compound NOT metabolized” in series [1]; “Compound NOT metabolized” in series [2]; “Compound NOT metabolized” in [3]; “Compound metabolized” in series [4]; “Compound NOT metabolized” in series [5]; “Compound NOT metabolized” in series [6]. Also, the “Bacterial Biotransformation” value in series [7] is recorded as “Compound NOT metabolized”; in series [8] it was “Compound metabolized”; in [9], “Compound NOT metabolized”; in series [10], “Compound metabolized”; in series [11] it was “Compound NOT metabolized”; in [12] it was “Compound NOT metabolized”. In addition, the “Bacterial Biotransformation” value in series [13] is listed as “Compound metabolized”; in series [14], “Compound NOT metabolized”; in series [15] it was “Compound NOT metabolized”; in [16] it was “Compound NOT metabolized”; in series [17], “Compound NOT metabolized”; in series [18] it was “Compound NOT metabolized”. The “Bacterial Biotransformation” value is on record as “Compound NOT metabolized” in [19] and “Compound metabolized” in series [20].
Take `CN1C(=O)CC(C)(c2ccccc2)C1=O` (stereo not given) [METHSUXIMIDE]: the “Bacterial Biotransformation” value in [1] was “Compound NOT metabolized”; in series [2], “Compound NOT metabolized”; in series [3] it was “Compound NOT metabolized”; in series [4], “Compound metabolized”; in [5] it was “Compound NOT metabolized”; in series [6] it was “Compound NOT metabolized”. Besides, the “Bacterial Biotransformation” value in series [7], in [8], in [9], in series [10], in [11] and in series [12] was “Compound NOT metabolized” in each case. Also, the “Bacterial Biotransformation” value in series [13], in series [14], in series [15], in series [16], in [17] and in [18] was “Compound NOT metabolized” throughout. Besides, the “Bacterial Biotransformation” value was “Compound NOT metabolized” in series [19] and “Compound metabolized” in series [20].
Regarding `CNC(=C[N+](=O)[O-])NCCSCc1csc(CN(C)C)n1` [NIZATIDINE], the “Bacterial Biotransformation” value in series [1] is “Compound NOT metabolized”; in [2], “Compound NOT metabolized”; in [3], “Compound metabolized”; in series [4], “Compound NOT metabolized”; in [5] it was “Compound metabolized”; in [6] it was “Compound NOT metabolized”. The “Bacterial Biotransformation” value in [7] is reported as “Compound NOT metabolized”; in [8], “Compound NOT metabolized”; in series [9], “Compound metabolized”; in [10], “Compound NOT metabolized”; in [11] it was “Compound NOT metabolized”; in [12], “Compound NOT metabolized”. The “Bacterial Biotransformation” value in series [13] is “Compound metabolized”; in series [14] it was “Compound NOT metabolized”; in [15], “Compound NOT metabolized”; in [16], “Compound NOT metabolized”; in series [17], “Compound NOT metabolized”; in [18], “Compound NOT metabolized”. Also, the results for the “Bacterial Biotransformation” value in series [19] and in series [20] were “Compound NOT metabolized” and “Compound metabolized”, respectively.
With `COc1ccc2[nH]c([S+]([O-])Cc3ncc(C)c(OC)c3C)nc2c1` (stereo not given) [OMEPRAZOLE], the “Bacterial Biotransformation” value in series [1] is reported as “Compound metabolized”; in series [2], “Compound NOT metabolized”; in [3], “Compound metabolized”; in series [4] it was “Compound NOT metabolized”; in [5], “Compound metabolized”; in [6], “Compound metabolized”. Further, the “Bacterial Biotransformation” value in series [7] was “Compound NOT metabolized”; in [8] it was “Compound metabolized”; in series [9], “Compound metabolized”; in series [10] it was “Compound metabolized”; in series [11], “Compound NOT metabolized”; in [12] it was “Compound metabolized”. For the same compound, the “Bacterial Biotransformation” value in [13] is recorded as “Compound metabolized”; in series [14] it was “Compound NOT metabolized”; in series [15], “Compound metabolized”; in series [16], “Compound metabolized”; in [17] it was “Compound metabolized”; in [18] it was “Compound metabolized”. In addition, the entries for the “Bacterial Biotransformation” value in series [19] and in series [20] were “Compound metabolized” and “Compound NOT metabolized”, respectively.
